The test system of data set [1] is HIV-1LAl. The data set is described as follows: Anti-HIV (in PBM cells) assay, reverse transcriptase readout. In kind it is cell-based. The essentials:
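Human PBM cells infected with HIV-1; compounds diluted from DMSO stocks into growth medium, AZT as positive control. Virus in supernatant quantified day 6 post-infection by reverse transcriptase assay with (rA)n.(dT)12.18 template-primer; EC50 and EC90 from concentration-response curves by median effective method.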

Data set [2] relates to HIV-1RF. Kind of data set: Anti-HIV (in MT-2 cells) assay, viral RNA accumulation. The class given is cell-based. The settings on record: EC90, MT-2 cells, read-out: Anti-HIV-1 activity in different cells (EC90, μM) MT-2. The essentials: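 HIV-1RF in MT-2 cells: viral RNA quantified after 3 days of infection by biotinylated capture/alkaline phosphatase reporter oligonucleotides. HIV-1NL4-3 recombinant virus in MT-4 cells: drug added 24 h post-infection, p24 measured by ELISA 3 days later.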

The subject of data set [3] is HIV-1NL4-3. The data set is described as follows: Anti-HIV assay in MT-4 cells, consensus p24 assay. In kind it is cell-based. Here is the method:
In a second antiviral testing system, the potency of the compounds was determined by measurement of viral RNA accumulation in HIV-1RF infected MT-2 cells (Bacheler L T, Paul M, Otto M J, Jadhav P K, Stone B A & Miller J A (1994) An assay for HIV RNIn infected cell lysates, and its use for rapid evaluation of antiviral efficacy. Antivir. Chem. Chemother. 5:111–121). The virus titer was established to determine the dilution producing 15 to 30 ng/RNA per well of HIV RNIn 3 days of infection. HIV-1 RNA was quantified using biotinylated capture and alkaline phosphatase-derivatized reporter oligonucleotides as described previously (Charvet A-S, Camplo M, Faury P, Graciet J C, Mourier N, Chermann J C & Kraus J L (1994) Inhibition of human immunodeficiency virus type 1 replication by phosphonoformate- and phosphonoacetate-2′,3′-dideoxy-3′-thiacytidine conjugates. J. Med. Chem. 37:2216–2223). In a third system, the effect of analogs on the replication of HIV-1NL4-3 was determined via the InterCompany Consortium consensus p24 assay as previously described (Jadhav P K & MacKay M F (1997) Cyclic urea amide: HIV-1 protease inhibitors with low nanomolar potency against both wild types and protease inhibitor resistant mutants of HIV. J. Med. Chem. 40:181–190). Recombinant viruses were recovered by transfecting the appropriate NL4-3 plasmid by lipofection. Virus stocks recovered 7 to 10 days post-transfection were titered on MT-4 cells to determine if the dilution produced 1,000 to 3,000 ng p24 in 4 days. This dilution was then used in drug susceptibility assays, where drug was added 24 h post infection of cells, and p24 quantified by ELISA 3 days later.

Data set [4] has as its system human PBM cells. Kind of data set: Cytotoxicity assay in PBM cells. In kind it is cell-based. The essentials:
(§1)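 Compound toxicity measured in each cell type, with cycloheximide as positive cytotoxic control and solvent-exposed untreated cells as negative control. Cytotoxicity IC50 derived from concentration-response curves by the median effective method.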

Data set [5] relates to CEM (human lymphoblastoid) cells. Kind of data set: Cytotoxicity assay in CEM cells. In kind it is cell-based. The essentials: as §1
The subject of data set [6] is Vero cells. Kind of data set: Cytotoxicity assay in Vero cells. The class given is cell-based. The essentials:
as §1

The test system of data set [7] is MT-2 cells. Kind of data set: Cytotoxicity assay in MT-2 cells. In kind it is cell-based. The essentials:
as §1

The test system of data set [8] is HepG2 cells. Kind of data set: Cytotoxicity assay in HepG2 cells. In kind it is cell-based. The gist of the method:
as §1

Data set [9] is described as follows: Cytotoxicity assay in PBM cells. In kind it is cell-based, human. The settings on record: human, human PBM cells. The gist of the method:
as §1

Data set [10] is described as follows: Cytotoxicity assay in CEM cells. In kind it is cell-based, human. Conditions: human, CEM lymphoblastoid cells. The gist of the method: as §1
Data set [11] in a line: Cytotoxicity assay in Vero cells. The settings on record: African green monkey. In kind it is cell-based. The essentials: as §1
Data set [12] is described as follows: Cytotoxicity assay in MT-2 cells. The settings on record: human. The class given is cell-based. The gist of the method:
as §1

Data set [13] is described as follows: Cytotoxicity assay in HepG2 cells. In kind it is cell-based. The settings on record: human. The essentials: as §1
The mark [14] stands for this setting: Table 2, read-out: Anti-HIV-1 activity in different cells (EC90, μM) PBM.
Setting [15] is: Table 2, read-out: Anti-HIV-1 activity in different cells (EC90, μM) MT-4.
The mark [16] stands for this setting: Table 2, read-out: Cytotoxicity in different cells (IC50, μM) PBM.
Where [17] appears, read: Table 2, read-out: Cytotoxicity in different cells (IC50, μM) CEM.
[18] abbreviates: Table 2, read-out: Cytotoxicity in different cells (IC50, μM) Vero.
Where [19] appears, read: Table 2, read-out: Cytotoxicity in different cells (IC50, μM) MT-2.
Setting [20] is: Table 2, read-out: Cytotoxicity in different cells (IC50, μM) HepG2.
Setting [21] is: Table 1, read-out: Cytotoxicity in different cells (IC50, μM) PBM.
Where [22] appears, read: Table 1, read-out: Cytotoxicity in different cells (IC50, μM) CEM.
Where [23] appears, read: Table 1, read-out: Cytotoxicity in different cells (IC50, μM) Vero.
Setting [24] is: Table 1, read-out: Cytotoxicity in different cells (IC50, μM) MT-2.
[25] abbreviates: Table 1, read-out: Cytotoxicity in different cells (IC50, μM) HepG2.
The mark [26] stands for this setting: Human immunodeficiency virus 1, PBMC, Table 1, read-out: Anti-HIV-1 activity in different cells (EC90, μM) PBM.
Where [27] appears, read: Human immunodeficiency virus 1, MT2, Table 1.
[28] abbreviates: Human immunodeficiency virus 1, MT4, Table 1, read-out: Anti-HIV-1 activity in different cells (EC90, μM) MT-4.

Like-named read-outs stand apart in the source and are kept apart here.

Take `Nc1nc(=O)n([C@H]2C=C[C@@H](CO)O2)cc1F` [D-D4FC, β-D-2′,3′-Dideoxy-2′,3′-didehydro-5-fluorocytidine, reference compound]: the EC90 turned out to be 0.77 µM in [1] (setting [14]), 1.19 µM in data set [2] (Table 2) and 1.15 µM in data set [3] (setting [15]). Also, the IC50 in [4] (setting [16]) is greater than 100 µM; in data set [5] (setting [17]), greater than 100 µM; in data set [6] (setting [18]) it was greater than 100 µM; in data set [7] (setting [19]) it was greater than 50 µM; in data set [8] (setting [20]), greater than 100 µM.
Take `O=C(Nc1nc(=O)n([C@H]2C=C[C@@H](CO)O2)cc1F)c1cccc(Cl)c1` [Compound 40, β-D-N^4-(3-Chlorobenzoyl)-2′,3′-didehydro-2,3′-dideoxy-5-fluorocytidine]: the EC90 in data set [1] (setting [14]) came to 1.71 µM; in data set [2] (Table 2), 2 µM; in data set [3] (setting [15]), 3.4 µM. In addition, the IC50 is 45.3 µM in [4] (setting [16]); 11.2 µM in data set [5] (setting [17]); 100 µM in data set [6] (setting [18]); greater than 50 µM in [7] (setting [19]); 32.4 µM in data set [8] (setting [20]).
Consider `CCc1ccc(C(=O)Nc2nc(=O)n([C@H]3C=C[C@@H](CO)O3)cc2F)cc1` [Compound 51, β-D-2′,3′-Didehydro-2′,3′-dideoxy-N^4-(4-ethyllbenzoyl)-5-fluorocytidine], for which the EC90 in data set [1] (setting [14]) was found to be 6.2 µM; in data set [2] (Table 2), 0.24 µM; in [3] (setting [15]), 2.3 µM. The IC50 in data set [4] (setting [16]) was 13 µM; in data set [5] (setting [17]), 8.1 µM; in data set [6] (setting [18]), 40.3 µM; in data set [7] (setting [19]), greater than 50 µM; in data set [8] (setting [20]), greater than 100 µM.
With `CC(C)(C)c1ccc(C(=O)Nc2nc(=O)n([C@H]3C=C[C@@H](CO)O3)cc2F)cc1` [Compound 53, β-D-N^4-(4-tert-Butylbenzoyl)-2′,3′-didehydro-2′,3′-dideoxy-5-fluorocytidine], the figures for the EC90 in data set [1] (setting [14]), in data set [2] (Table 2) and in data set [3] (setting [15]) were 0.41 µM, 0.13 µM and 1.1 µM, respectively. Also, the IC50 in data set [4] (setting [16]) is 5 µM; in [5] (setting [17]) it was 9.9 µM; in [6] (setting [18]) it was 59.2 µM; in [7] (setting [19]), greater than 50 µM; in data set [8] (setting [20]), greater than 100 µM.
Turning to `O=C(Nc1nc(=O)n([C@H]2CC[C@@H](CO)O2)cc1F)c1cccc([N+](=O)[O-])c1` [Compound 19, β-D-2′,3′-Dideoxy-S-fluoro-N-(3-nitrobenzoyl)cytidine], the EC90 in data set [1] (Table 1, read-out: Anti-HIV-1 activity in different cells (EC90, μM) PBM) was determined as 1.6 µM; in [2] (Table 1) it was 1.8 µM; in data set [3] (Table 1, read-out: Anti-HIV-1 activity in different cells (EC90, μM) MT-4), 1.59 µM. For the same molecule, the IC50 in data set [4] (setting [21]) is greater than 100 µM; in data set [5] (setting [22]), greater than 100 µM; in data set [6] (setting [23]), greater than 100 µM; in data set [7] (setting [24]), greater than 50 µM; in data set [8] (setting [25]) it was greater than 100 µM.
Turning to `O=C(Nc1nc(=O)n([C@H]2C=C[C@@H](CO)O2)cc1F)c1cccc(Br)c1` [Compound 41, β-D-N^4-(3-Bromobenzoyl)-2′,3′-didehydro-2′,3′-dideoxy-5-fluorocytidine], the EC90 in [1] (setting [14]) stood at 1.71 µM; in data set [2] (Table 2) it was 1 µM; in data set [3] (setting [15]), 2.2 µM. Further, the IC50 in data set [4] (setting [16]) is 51.6 µM; in data set [5] (setting [17]) it was 24.9 µM; in data set [6] (setting [18]) it was 99.7 µM; in data set [7] (setting [19]), greater than 50 µM; in data set [8] (setting [20]), greater than 100 µM.
Consider `O=C(Nc1nc(=O)n([C@H]2CC[C@@H](CO)O2)cc1F)c1cccc(Cl)c1` [Compound 15, β-D-N^4-(3-Chlorobenzoyl)-2′,3′-dideoxy-5-fluorocytidine], for which the results for the EC90 in [1] (setting [26]), in data set [2] (setting [27]) and in [3] (setting [28]) were 0.08 µM, 0.4 µM and 0.51 µM, respectively. Further, the IC50 is greater than 100 µM in data set [9] (setting [21]); 68.1 µM in data set [10] (setting [22]); 91.6 µM in data set [11] (setting [23]); greater than 50 µM in data set [12] (setting [24]); greater than 100 µM in data set [13] (setting [25]).
In the case of `O=C(Nc1nc(=O)n([C@H]2CC[C@@H](CO)O2)cc1F)c1ccc(Br)cc1` [Compound 13, β-D-N^4-(4-bromobenzoyl)-2′,3′-dideoxy-5-fluorocytidine], the values for the EC90 in [1] (setting [26]), in data set [2] (setting [27]) and in data set [3] (setting [28]) were 0.03 µM, 0.14 µM and 0.3 µM, respectively. The IC50 in [9] (setting [21]) is greater than 100 µM; in data set [10] (setting [22]), 31.6 µM; in data set [11] (setting [23]) it was greater than 100 µM; in data set [12] (setting [24]), greater than 50 µM; in [13] (setting [25]), greater than 100 µM.
As for `Cc1ccc(C(=O)Nc2nc(=O)n([C@H]3CC[C@@H](CO)O3)cc2F)cc1` [Compound 22, β-D-2′,3′-Dideoxy-5-fluoro-N^4-p-toluoylcytidine], the results for the EC90 in data set [1] (setting [26]), in [2] (setting [27]) and in data set [3] (setting [28]) were 0.028 µM, 0.31 µM and 0.23 µM, respectively. The IC50 is greater than 100 µM in data set [9] (setting [21]); greater than 100 µM in data set [10] (setting [22]); greater than 100 µM in [11] (setting [23]); greater than 50 µM in data set [12] (setting [24]); greater than 100 µM in data set [13] (setting [25]).
As for `CCc1ccc(C(=O)Nc2nc(=O)n([C@H]3CC[C@@H](CO)O3)cc2F)cc1` [Compound 25, β-D-2′,3′-Dideoxy-N^4-(4-ethylbenzoyl)-5-fluorocytidine], the EC90 came to 0.03 µM in [1] (setting [26]), 0.12 µM in data set [2] (setting [27]) and 0.22 µM in data set [3] (setting [28]). Besides, the IC50 is greater than 100 µM in [9] (setting [21]); 89.8 µM in data set [10] (setting [22]); greater than 100 µM in data set [11] (setting [23]); 50 µM in data set [12] (setting [24]); greater than 100 µM in data set [13] (setting [25]).
As for `O=C(Nc1nc(=O)n([C@H]2C=C[C@@H](CO)O2)cc1F)c1ccc(Cl)cc1` [Compound 36, β-D-N^4-(4-Chlorobenzoyl)-2′,3′-didehydro-2′,3′-dideoxy-5-fluorocytidine], the EC90 in data set [1] (Human immunodeficiency virus 1, PBMC, Table 2, read-out: Anti-HIV-1 activity in different cells (EC90, μM) PBM) came to 0.48 µM; in data set [2] (Human immunodeficiency virus 1, MT2, Table 2), 0.23 µM; in [3] (Human immunodeficiency virus 1, MT4, Table 2, read-out: Anti-HIV-1 activity in different cells (EC90, μM) MT-4) it was 1.9 µM. For the same molecule, the concentration for half-maximal inhibition (IC50) is 11.9 µM in [9] (setting [16]); 16.8 µM in data set [10] (setting [17]); 72.2 µM in [11] (setting [18]); greater than 50 µM in [12] (setting [19]); greater than 100 µM in data set [13] (setting [20]).

In general, EC90 refers to the concentration needed for an effect of 90%. A word on the IC50: it is the concentration that gives 50% inhibition.
